From patent US8853242B2, “Nitrogenous-ring acylguanidine derivative” (Astellas Pharma Inc., priority 2009, dated 2014)

The compounds below were run against human 5-HT5A receptor (Homo sapiens (Human), UniProt P47898) (assay: Test on a human 5-HT5A receptor binding inhibition ([3H]5-CT)). Conditions: [3H]5-CT binding inhibition, membrane from HEK293 cells expressing human 5-HT5A receptor; Ki calculated from IC50.
Chain of human 5-HT5A receptor (P47898 whole entry): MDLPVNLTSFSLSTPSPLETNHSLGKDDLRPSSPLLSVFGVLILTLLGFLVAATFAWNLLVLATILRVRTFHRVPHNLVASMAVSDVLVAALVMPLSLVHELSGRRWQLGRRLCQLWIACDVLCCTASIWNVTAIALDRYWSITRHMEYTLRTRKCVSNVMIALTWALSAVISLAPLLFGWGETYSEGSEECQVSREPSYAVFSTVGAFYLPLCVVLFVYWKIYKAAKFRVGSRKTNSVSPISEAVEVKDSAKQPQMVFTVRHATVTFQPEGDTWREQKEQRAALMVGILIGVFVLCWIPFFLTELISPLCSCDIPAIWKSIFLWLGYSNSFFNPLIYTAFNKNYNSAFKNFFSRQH
Description: The ORF (open reading frame; protein coding region) of a human 5-HT5A receptor (Genbank AF498985) was cloned from a human hippocampus cDNA library, and then inserted into a pCR2.1 vector (Invitrogen), and Escherichia coli containing the plasmid was cultured in a large amount. Next, the full-length cDNA sequence of the human 5-HT5A receptor was analyzed, and recombined into a pCDNA3.1 vector (Invitrogen) as an expression vector and cultured in a large amount. HEK293 established cells (ATCC) derived from the human fetal kidney were seeded, the expression plasmid (1 μg) obtained above were added thereto with LIPOFECTAMINE 2000 (Invitrogen; 2 μl), the gene was transfected into HEK293 cells, and the expression cells were screened with a drug-resistant marker, Geneticin (G418 sulfate 500 μg/ml; Kanto Chemical Co., Inc.). Thus prepared recombinant cells which expressed the gene were cultured in a medium containing D-MEM (Dulbecco's modified eagle medium, Sigma), 10% FCS (Fetal calf serum: fetal bovine serum), 1% Pc./Sm (Penicillin/Streptomycin, Invitrogen), and 500 μg/ml G418 for 3 days. These experimental operations followed a manual for gene operation experiment and an instruction appended in a reagent, and the like, such as a known method (Sambrook, J. et al, Molecular Cloning-A Laboratory Manual”, Cold Spring Harabor laboratory, NY, 1989).
HEK293 cells for forced expressions of a human 5-HT5A receptor were cultured in a F500 plate, and scraped with a scraper. After centrifugation, the precipitate was collected, and an incubation buffer (50 mM Tris (HCl) (pH 7.4), 10 mM MgSO4, and 0.5 mM EDTA (ethylenediamine tetraacetic acid)) was added thereto. After homogenization, it was further centrifuged, and the incubation buffer was added to the precipitate, followed by thoroughly suspending. The operation was repeated, and protein concentration was measured, thereby completing preparation of the membrane.
A solution of the compound to be tested and 100 μM 5-CT (5-carboxamidetriptamine) in DMSO was added to a 96-well plate at 2 μl/well, suspended in an incubation buffer, and a membrane from HEK293 cells for forced expressions of a human 5-HT5A receptor prepared at 200 μg/ml was added at 100 μl/well. After incubation at room temperature for 15 minutes, a [^3H]5-CT solution (2 nM [^3H]5-CT, incubation buffer) was added thereto at 100 μl/well.
Separately, 100 μl of the solution was distributed into a liquid scintillation vial, and 2 ml of Aquasol II (registered trademark) was added thereto, followed by stirring. Then, radioactivity was measured by a liquid scintillation counter. It was incubated at 37° C. for 60 minutes. The reaction mixture was sucked into 96-well GF/C filter plate that had been pre-treated with 0.2% polyethyleneimine, and washed six times with an ice-cooled, 50 mM Tris (pH 7.5) buffer. The GF/C filter plate was dried.
Microscint TMPS (registered trademark) was added thereto at 40 μl/well. Radioactivity remaining on the GF/C filter plate was measured by a top counter.
The [^3H]5-CT binding inhibiting activity by the compound to be tested in each experiment was determined as an IC50 value with a radioactivity upon addition of DMSO alone being 0% inhibition, and a radioactivity upon addition of 1 μM 5-CT being 100% inhibition. Separately, Ki values were calculated from the Kd value of the [^3H]5-CT determined from Scatchard analysis, by the following equation. Ki=IC50(1+Concentraion of ligand added/Kd(4.95 nM))
Compound `Cc1nc2ccc(C(=O)N=C(N)N)cc2c(-c2c(F)cc(F)cc2F)c1C` [Example 114] has a Ki of 3.7 nM. `NC(N)=NC(=O)c1ccc2c(F)cnc(-c3c(F)cccc3Cl)c2c1` [Example 147] showed a Ki of 1.6 nM.

Same assay, conditions: [3H]5-CT binding, membrane from HEK293 cells expressing human 5-HT5A receptor; Ki calculated from IC50
For `NC(N)=NC(=O)c1ccc2nc(C(F)(F)F)cc(-c3ccc(F)cc3F)c2c1` [Example 92], the Ki was 100 to 300 nM. Work on `COc1ccc(-c2c(Cl)cnc3ccc(C(=O)N=C(N)N)cc23)cc1` [Example 93] yielded a Ki of 1 to 10 nM. `Cc1cc(C(=O)N=C(N)N)cc2c(-c3ccc(F)cc3F)c(Cl)cnc12` [Example 99] was tested, and the Ki was 1 to 10 nM. For `NC(N)=NC(=O)c1ccc2c(Cl)cnc(-c3cccc(Cl)c3Cl)c2c1` [Example 100], the Ki was 10 to 100 nM. `Cc1cc(C(=O)N=C(N)N)cc2c(-c3ccccc3F)c(Cl)cnc12` [Example 101] was tested, and the Ki was 1 to 10 nM. `NC(N)=NC(=O)c1ccc2ncc(Cl)c(C3=CCCCC3)c2c1` [Example 102] gave a Ki of 1 to 10 nM. For `Cc1cc(C(=O)N=C(N)N)cc2c(C3CC3)c(Cl)cnc12` [Example 103], the Ki was 10 to 100 nM. For `NC(N)=NC(=O)c1ccc2ncc(Cl)c(-c3ccncc3F)c2c1` [Example 104], the Ki was 1 to 10 nM. `Cc1nc2ccc(C(=O)N=C(N)N)cc2c(-c2ccccc2F)c1C` [Example 105] was tested, and the Ki was 10 to 100 nM. For `COc1ncccc1-c1c(Cl)cnc2ccc(C(=O)N=C(N)N)cc12` [Example 106], the Ki was 10 to 100 nM. Compound `NC(N)=NC(=O)c1ccc2ncc(Cl)c(C3=CCCC3)c2c1` [Example 107] has a Ki of 1 to 10 nM. `Cc1nc2ccc(C(=O)N=C(N)N)cc2c(-c2c(F)cccc2F)c1C` [Example 117] gave a Ki of 1 to 10 nM. `Cc1nc2ccc(C(=O)N=C(N)N)cc2c(-c2ccc(F)cc2)c1C` [Example 118] was tested, and the Ki was 10 to 100 nM. In the case of `COc1cc(C#N)ccc1-c1c(C)c(C)nc2ccc(C(=O)N=C(N)N)cc12` [Example 120], the Ki is reported as 10 to 100 nM. `Cc1nc2ccc(C(=O)N=C(N)N)cc2c(-c2c(F)cccc2Cl)c1C` [Example 121] was tested, and the Ki was 1 to 10 nM. Work on `Cc1nc2ccc(C(=O)N=C(N)N)cc2c(-c2ccccc2Cl)c1C` [Example 122] yielded a Ki of 10 to 100 nM. `Cc1nc2ccc(C(=O)N=C(N)N)cc2c(-c2c(F)cccc2F)c1F` [Example 123] showed a Ki of 1 to 10 nM. `Cc1cc(-c2c(F)cc(F)cc2Cl)c2cc(C(=O)N=C(N)N)ccc2n1` [Example 124] showed a Ki of 10 to 100 nM. With `Cc1nc2ccc(C(=O)N=C(N)N)cc2c(-c2ccccc2F)c1F` [Example 125] the Ki was 10 to 100 nM. `Cc1nc2ccc(C(=O)N=C(N)N)cc2c(-c2ccc(F)cc2Cl)c1C` [Example 126] was tested, and the Ki was 1 to 10 nM. In the case of `Cc1nc2ccc(C(=O)N=C(N)N)cc2c(-c2ccncc2Cl)c1C` [Example 127], the Ki is reported as 10 to 100 nM. Work on `COc1cccc(F)c1-c1c(C)c(C)nc2ccc(C(=O)N=C(N)N)cc12` [Example 129] yielded a Ki of 10 to 100 nM. For `Cc1nc2ccc(C(=O)N=C(N)N)cc2c(-c2ccccc2Cl)c1Cl` [Example 130], the Ki was 1 to 10 nM. With `Cc1nc2ccc(C(=O)N=C(N)N)cc2c(-c2c(F)cncc2F)c1C` [Example 131] the Ki was 10 to 100 nM. With `Cc1nc2ccc(C(=O)N=C(N)N)cc2c(-c2ccc(F)cc2Cl)c1Cl` [Example 132] the Ki was 1 to 10 nM. With `NC(N)=NC(=O)c1ccc2ccnc(-c3ccccc3)c2c1` [Example 133] the Ki was 10 to 100 nM. In the case of `NC(N)=NC(=O)c1ccc2ccnc(-c3c(F)cccc3Cl)c2c1` [Example 134], the Ki is reported as 1 to 10 nM. `NC(N)=NC(=O)c1ccc2ccnc(-c3ccc(Cl)cc3Cl)c2c1` [Example 138] showed a Ki of 1 to 10 nM. In the case of `N#Cc1ccccc1-c1nccc2ccc(C(=O)N=C(N)N)cc12` [Example 139], the Ki is reported as 100 to 300 nM. Compound `N#Cc1cc(Cl)ccc1-c1nccc2ccc(C(=O)N=C(N)N)cc12` [Example 140] has a Ki of 10 to 100 nM. `N#Cc1ccc(-c2nccc3ccc(C(=O)N=C(N)N)cc23)c(F)c1` [Example 141] showed a Ki of 1 to 10 nM. With `NC(N)=NC(=O)c1ccc2c(Cl)cnc(-c3c(F)cc(F)cc3F)c2c1` [Example 142] the Ki was 1 to 10 nM. `N#Cc1cnc(-c2c(F)cc(F)cc2F)c2cc(C(=O)N=C(N)N)ccc12` [Example 143] showed a Ki of 10 to 100 nM. `NC(N)=NC(=O)c1ccc2c(F)cnc(-c3c(F)cc(F)cc3F)c2c1` [Example 144] gave a Ki of 1 to 10 nM.
